In patent US20260325443A1, “OLFACTORY DELIVERY OF THERAPEUTIC PSYCHEDELICS” (Rocket Science Health Corp., priority 2023, published 2026):
“And” between values parts separate entries of the source, which are not always exact repeats. Equal entries are not always repeated. Structures can show the parent of a compound that is named as a salt.

Columns and labels:
[1] = Plasma and tissue concentrations of ketamine via olfactory delivery compared to intravenous administration in rats (LC/MS/MS); format: in vivo, male Sprague Dawley rats; conditions: 5 mg/kg; for concentration at 5 min / concentration at 0.25 h / concentration at 0.5 h / concentration at 1 h / concentration at 1.5 h / concentration at 2 h / concentration at 200 min: rat, plasma; for concentration at 0.25 h: 15 min; for concentration at 0.5 h: 30 min; for concentration at 1 h: 60 min; for concentration at 1.5 h: 90 min; for concentration at 2 h: 120 min
Experimental: Drug Administration and Sample Collection: Intravenous (IV) administration was conducted by 100 μL tail vein injection. Olfactory delivery (OD) administration was conducted by a. 0.699 mm diameter cannula inserted into the right nostril with a minimal angle of 20-degrees to the target of the correct meatus.
Time course experiment and tissue concentration: 12 male Sprague Dawley rats (Age M+/−SD, Weight: 176.27-188.03 g) were administered Ketamine-HCl via IV or OD administration (resulting in two experimental groups, each with n=6). Ketamine-HCl was formulated according to the following procedures: For Ketamine-HCL 5 mg/kg OD: 24.64 mg Ketamine-HCL was added to 0.426 ml of saline, mixed well, and dissolved, with a solution concentration of 50 mg/ml. For Ketamine-HCL 5 mg/kg IV: 0.20 ml of 50 mg/ml Ketamine-HCL solution, was added to 0.60 ml of saline and mixed well to achieve a solution concentration of 12.5 mg/ml. Plasma time courses for 200 minutes were generated. Concentration of compound in brain, olfactory bulb, and plasma at t=200 minutes was quantified using LC/MS/MS.

[2] = Effect of administration routes (OD, IN, IV) on plasma, brain and olfactory bulb drug concentrations in rats (LCMS); conditions: 15 min after administration, 5.0 mg/kg
Experimental: The goal of this example was to compare nasal cannula delivery (OD) with the traditional IV and IN administration routes.
Procedure: The three routes of administration were tested on rats. A compound formulation of ketamine (5.0 mg/kg), naloxone (0.5 mg/kg), diazepam (2.0 mg/kg), and ondansetron (1.0 mg/kg) was administer. 15 minutes after the drug was administered, rats were sacrificed and samples were taken from plasma, the olfactory bulb, and the brain. To assess each route of administration's efficacy, drug concentrations in each tissue were quantified using liquid chromatography-mass spectrometry (LCMS).

[3] = Visualizing olfactory cleft delivery with methylene blue (nasal endoscope imaging); format: in vivo, human; conditions: for Olfactory Residence Time: 0.1 mL, individual participants 2.01-2.05, at least 50% of fluid at olfactory cleft
Experimental: Participants: Five healthy participants (ages 19+) with no history of sinonasal symptoms and no evidence of nasal inflammation were recruited for this study. Prior to recruitment of participants study procedures were approved by Providence Health Care research ethics board, (British Columbia, Canada) and conducted under Health Canada Investigational Testing Authorization #314993. All participants were assessed by a licensed otolaryngologist physician to confirm their eligibility. Participants completed two study visits during which a licensed otolaryngologist physician administered 0.1 mL of the visual dye tracer, methylene blue.
Study Design: During the first visit, the methylene blue was administered using the Laminar Fluid Ejection method (1.5 mm cannula; velocity=4.5 m/s). During the second visit, methylene blue was administered using a conventional nasal spray device (Pharma systems Item #10272, UPC: 063636802714). The Pharma systems spray device was used in these experiments because it was the device normally used by the compounding pharmacy for intranasal delivery. It was the device patients and clinicians were used to at this clinic.
Following delivery, the physician used a nasal endoscope to image the deposition of methylene blue to the olfactory cleft at up to five time points (1, 5, 8, 12, and 15 minutes following delivery). From each image, the physician judged whether at least 50% of the methylene blue fluid was delivered to the olfactory cleft. If <50% of the methylene blue was judged to have deposited in the olfactory cleft, imaging was stopped and that session's trial was completed.

For `CNC1(c2ccccc2Cl)CCCCC1=O` (centres unmarked) [ketamine], the “plasma concentration, OD vs IV” value [1] was “higher plasma concentration of ketamine can be achieved with OD than IV” and the “delivery to brain tissue, targeted to olfactory cleft (OD) vs traditional intranasal” value [2] was “improved delivery to brain tissue compared to traditional intranasal sprays”.
In the case of `CNC1(c2ccccc2Cl)CCCCC1=O` (centres unmarked) [Ketamine-HCl], the concentration at 5 min ([1]; IV) is reported as 1710 ng/mL, the concentration at 0.25 h ([1]; IV) is reported as 686 ng/mL and the concentration at 0.5 h ([1]; IV) is reported as 330 ng/mL. It also gave a concentration at 1 h ([1]; IV) of 150 ng/mL, a concentration at 1.5 h ([1]; IV) of 65.8 ng/mL and a concentration at 2 h ([1]; IV) of 27.1 ng/mL. For the same compound, the concentration at 200 min ([1]; IV) was 2.53 ng/mL, the concentration at 5 min ([1]; OD) was 7600 ng/mL and the concentration at 0.25 h ([1]; OD) was 7250 ng/mL. It also gave a concentration at 0.5 h ([1]; OD) of 2630 ng/mL, a concentration at 1 h ([1]; OD) of 383 ng/mL and a concentration at 1.5 h ([1]; OD) of 149 ng/mL. The concentration at 2 h ([1]; OD) was 63 ng/mL and the concentration at 200 min ([1]; OD) was 5.3 ng/mL.
For `CN(C)c1ccc2nc3ccc(=[N+](C)C)cc-3sc2c1` [Methylene Blue], the “Olfactory Residence Time” value ([3]; LFE Method (1.5 mm cannula; velocity=4.5 m/s)) was 8 min and 5 min and 0 min and 1 min and 15 min, the “participants with successful delivery of >50% of the methylene blue to the olfactory cleft” value ([3]; Laminar Fluid Ejection method) was “Four of the five participants” and the “Olfactory Residence Time” value ([3]; conventional nasal spray) was 0 min. For the same compound, the “delivery of at least 50% of the dye to the olfactory cleft” value ([3]; conventional nasal spray, each of the five participants) was “failed to deliver at least 50% of the dye”.
